The subject of one experiment is GT3TKB. Description: 72 hr viability by Syto60, gastric cell line. Format: cell-based. The conditions noted are these: Syto60 (lower), read-out: ganetespib IC50.
In a further experiment the test system is GCIY. In words: 72 hr viability by Syto60, gastric cell line. Type of experiment: cell-based. Conditions: Homo sapiens, Syto60 (lower), read-out: ganetespib IC50.

A word on the IC50: it is the midpoint of a concentration-inhibition curve. Regarding `CC(C)c1cc(-c2nnc(O)n2-c2ccc3c(ccn3C)c2)c(O)cc1O` [ganetespib], the 50% inhibitory concentration (IC50) in the experiment with GT3TKB worked out at 6 nM; with GCIY it was 9 nM.

The values above are taken from patent US20150253330A1, “PRE-SELECTION OF SUBJECTS FOR THERAPEUTIC TREATMENT WITH AN HSP90 INHIBITOR BASED ON HYPOXIC STATUS” (Synta Pharmaceuticals Corp., priority 2012, published 2015).
